# Read-outs that look alike come from different tables or passages of the source.
# Molecular target: T1, human MMP-9 (gelatinase B) (Homo sapiens, UniProt P14780)
# T1 construct: endogenous in cells; host or cells: HT1080 human fibrosarcoma cells (ATCC CCL-121), PMA-stimulated; enzyme purified from the culture supernatant
# Assay: Inhibition activity against human MMP-9 (gelatinase B), fluorescent peptide substrate
# Type: biochemical
# Protocol: Human MMP-9 (gelatinase B) was purified by the following method from a culture supernatant of HT1080 cells (human fibrosarcoma).
# 2.5×10^6 HT1080 cells (ATCC CCL-121, purchased from Dainippon Seiyaku) were inoculated to a tissue culture dish (Code No. 3020-100, manufactured by Iwaki Glass Co., Ltd.) having a diameter of 10 cm and containing 10 ml of Dulbecco's Modified Eagle Medium (DME, No. D-5648, manufactured by Sigma Co.) containing 10% fetal bovine serum (FBS: REHATUIN™, Code No. 1020-90, manufactured by Intergen Co.) and cultured for 72 hours at 37° C. in an atmosphere comprising 5% of CO2 and 95% of air (Carbon Dioxide Incubator LNA-122D Model, manufactured by Tabai Co.). Then, the medium was changed to 10 ml of a DME culture medium containing no FBS, and phorbol 12-myristate 13-acetate (PMA, code No. 163-114851, manufactured by Wako Pure Chemical Industries, Ltd.) was added so that the final concentration became 10 ng/ml. Under the same conditions, the culturing was carried out for further 20 hours, whereupon the culture supernatant was collected and subjected to cool centrifugation at 4° C. for 5 minutes (cool centrifugal separator, manufactured by Hitachi) to remove cell fragments.
# The pH of a conditioned medium (50 ml) containing MMP-9, thus prepared, was adjusted to 8.0 with 0.2N NaOH. […] Namely, the above-mentioned conditioned medium was passed through DEAE-Sephacel (manufactured by Pharmacia, gel volume: about 35 ml) preliminarily equilibrated with 50 mM Tris-HCl, pH 8.0 (A buffer), and a non-adsorption fraction was collected. Then, it was added to Dye Matrix Gel Green A (manufactured by Amicon Co., gel volume: about 6 ml) preliminarily equilibrated with 50 mM Tris-HCl, pH 7.5/10 MM CaCl2/0.05% Brij 35/0.02% NaN3 (B buffer) and thoroughly washed with the same buffer, whereupon the adsorbed enzyme was eluted with a 1M NaCl-containing B buffer. About 7.5 ml of the eluted fraction was diluted twice with the B buffer and added to Gelatin-Sepharose 4B (manufactured by Pharmacia, gel volume: about 6 ml) preliminarily equilibrated with a 0.5 M NaCl-containing B buffer. It was thoroughly washed with a 0.5M NaCl-containing B buffer, and eluted with the B buffer containing 10% of dimethylsulfoxide (DMSO) and 0.5 M of NaCl. 5.5 ml of the eluted fraction was dialyzed against a 0.1 M NaCl-containing B buffer to obtain 5.2 ml of a purified enzyme solution. The purified MMP-9 standard product was confirmed to have a single band of 92 kDa by a protein staining by SDS electrophoresis, and further, it was confirmed to have an adequate gelatin decomposing activity by gelatinzymography (carried out in accordance with a method by Howard E. W. et al; Journal Biological Chemistry, Vol. 266, 13064-13069, 1991) and to have an adequate substrate decomposing activity by the after-mentioned measurement employing a fluorescent peptide substrate specific to MMP.
# The inhibition activity against human MMP-9 was measured by the following method in accordance with the method by C. G. Knight et al (FEBS Letters, Vol, 296, 263-266, 1992) employing a fluorescent peptide substrate (7-methoxycoumarin-4-yl)Acetyl-Pro-Leu-Gly-Leu-(3-[2,4-dinitrophenyl]—Ala—Arg-NH2, Code 3163-VC, manufactured by Peptide Institute, Inc.
# Further, as the case requires, commercially available human MMP-9 purified enzyme (No. YU-18003, manufactured by Kabushiki Kaisha Yagai Chuo Kenkyusho; used in a final concentration of from 0.0125 to 0.025 unit/ml, No. CC079, manufactured by Chemicon International, Inc.; used in a final concentration of 0.2 μg/ml) was used for the tests. […]
# [1] = compounds of the formula (I), 1st measurement, read-out: MMP-9 inhibition activities IC50, 1st
# [2] = compounds of the formula (I), 2nd measurement, read-out: MMP-9 inhibition activities IC50, 2nd
# [3] = compounds of the formula (I), average of 1st and 2nd (or single measurement), read-out: MMP-9 inhibition activities IC50, Average
# [4] = intermediates, compounds of the formula (IV), 1st measurement, read-out: MMP-9 inhibition activities IC50, 1st
# [5] = intermediates, compounds of the formula (IV), average of 1st and 2nd (or single measurement), read-out: MMP-9 inhibition activities IC50, Average
# [6] = intermediates, compounds of the formula (IV), 2nd measurement, read-out: MMP-9 inhibition activities IC50, 2nd
# T1 sequence (P14780 107-707 limits assumed): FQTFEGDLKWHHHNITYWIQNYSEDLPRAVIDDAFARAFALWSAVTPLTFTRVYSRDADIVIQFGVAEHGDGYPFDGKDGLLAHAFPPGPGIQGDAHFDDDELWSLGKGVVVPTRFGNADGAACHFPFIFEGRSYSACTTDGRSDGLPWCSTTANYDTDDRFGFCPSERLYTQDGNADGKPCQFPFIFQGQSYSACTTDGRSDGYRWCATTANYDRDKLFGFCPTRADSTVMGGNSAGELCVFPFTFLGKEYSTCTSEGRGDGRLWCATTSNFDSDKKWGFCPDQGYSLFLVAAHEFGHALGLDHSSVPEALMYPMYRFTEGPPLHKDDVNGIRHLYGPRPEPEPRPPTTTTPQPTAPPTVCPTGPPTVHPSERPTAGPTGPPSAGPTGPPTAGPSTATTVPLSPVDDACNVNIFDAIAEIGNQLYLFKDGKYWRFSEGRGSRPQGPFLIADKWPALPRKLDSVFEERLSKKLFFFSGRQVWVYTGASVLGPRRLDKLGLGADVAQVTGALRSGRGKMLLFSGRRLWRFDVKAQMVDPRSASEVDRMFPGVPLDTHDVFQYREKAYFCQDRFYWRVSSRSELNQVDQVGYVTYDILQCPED
SMILES,IC50 [1] [µM],IC50 [2] [µM],IC50 [3] [µM],IC50 [4] [µM],IC50 [5] [µM],IC50 [6] [µM]
CCCCCCCCNC(=C[N+](=O)[O-])NN [compound 46],36.2,34.8,35.5,,,
"CSC(=C[N+](=O)[O-])NS(C)(=O)=O (single isomer, unassigned) [Intermediate 64]",,,,4.4,4.4,
CNC(=C[N+](=O)[O-])NN [compound 93],48.3,44.8,46.6,,,
CCNC(=C[N+](=O)[O-])SC [Intermediate 6],,,,33,33,
CNC(=C[N+](=O)[O-])SC [Intermediate 5],,,,26.9,26.9,
CNC(=C[N+](=O)[O-])NNS(C)(=O)=O [compound 108],15,35,25,,,
CNC(=C[N+](=O)[O-])NN(C)C [compound 83],66.2,14.2,36,,,
O=[N+]([O-])C=C(NNc1ccccc1)Nc1ccccc1 [Compound No. 2],45.1,24.7,34.9,,,
CSC(=C[N+](=O)[O-])NC(C)C [Intermediate 10],,,,26.9,36.8,46.6
C=C1C(C)=NN/C(=C\[N+](=O)[O-])N1c1ccccc1 [compound 155],24.3,43.5,33.9,,,
NNC(=C[N+](=O)[O-])Nc1ccc(Cl)cc1 [compound 51],27.3,32.1,29.7,,,
CNC(=C[N+](=O)[O-])NNc1cc(C(F)(F)F)ncn1 [compound 97],45.7,35.3,40.5,,,
CCS(=O)(=O)NC(=C[N+](=O)[O-])SC [Intermediate 59],,,,11.4,11.4,
CC(C)NC(=C[N+](=O)[O-])NN [compound 88],37.7,57.5,47.6,,,
CONC(=C[N+](=O)[O-])SC [Intermediate 63],,,,4.3,4.3,
"CNC(=C[N+](=O)[O-])NN=Cc1ccccn1 [Compound No. 29, 2-pyridinecarbaldehyde 1-methylamino-2-nitroethenylhydrazone]",30.8,24.5,27.7,,,
CNC(=C[N+](=O)[O-])NNc1ccccc1 [compound 84],43.4,14.2,28.8,,,
CSC(=C[N+](=O)[O-])Nc1ccc(Cl)cc1 [Intermediate 19],,,,29.9,32.8,35.6
CNNC(=C[N+](=O)[O-])NC [compound 82],52.9,19,36,,,
"CS(=O)(=O)NC(=C[N+](=O)[O-])NN1CCOCC1 [Compound No. 163, N-(1-(N-morpholino)amino-2-nitroethenyl)methanesulfonamide]",9.2,,9.2,,,
CCCCNC(=C[N+](=O)[O-])NN [compound 85],52.8,41.1,47,,,

# From patent publication US6596863B2, “Medical composition containing nitroetheneamine Derivative or salt there of as active constituent” (Ishihara Sangyo Kaisha, Ltd., priority 1998, dated 2003)
